Measured values from patent publication US20250313574A1, “SIALIC ACID DERIVATIVES AND METHODS OF USING SAME” (EISAI R&D MANAGEMENT CO., LTD., priority 2022, published 2025).

molecular target: Recombinant human CD33 protein (Homo sapiens (Human), UniProt P20138); assay: CD33 competitive binding assay for HTS drug screen (fluorescent multivalent sialic acid probe)
Experimental: This is a competitive binding assay that uses recombinant CD33 immobilized to a plate and a fluorescently-labeled multivalent sialic acid analog as a probe. Binding of drug to the site on CD33 to which sialic acid binds is detected by reduced binding of the fluorescent probe. Recombinant human CD33 protein (for example Acro Biosystems cat #CD3-H5257) was added at a concentration of 10 μg/ml in 20 mM acetate buffer (pH5.5) to a black plastic plate (Corning 4510) and allowed to incubate overnight at 4° C. The next day, the wells were washed 3 times with PBS containing 0.02% Tween-20. This was followed by a 30-minute incubation with PBS containing 0.2% Tween-20 and 0.5% BSA to block non-specific binding to the well. This buffer is removed and replaced with 10 μl of the same buffer, which is also used as the assay buffer. The fluorescent multivalent sialic acid probe was prepared as a 4× concentration as follows. A biotinylated sialic acid analog A-375 was mixed with biotin-4-Fluorescein isothiocyanate (biotin-4-FITC) at a 3:1 molar ratio with final concentrations (4× stock) of 60 μM A-375 and 20 μM biotin-4-FITC. After these were mixed, 20 μM of neutravidin was added, which should form complexes consisting of neutravidin, fluorescein and sialic acid with an average complex consisting of 1 neutravidin, 1 FITC and 3 sialic acid analogs. The multimerization of the sialic acid analog is critical to the assay and improves the affinity of the sialic acid analog several orders of magnitude. A test compound, for example A-001, is added at 5 μl to the 10 μl assay buffer already in the well. After a brief incubation, 5 μl of the 4× stock solution of sialic acid complexes was added. The final concentration of the complexes was therefore 5 μM neutravidin, 15 μM A-375 and 5 μM FITC. The plate was incubated at room temperature for 30 mins and then washed with PBS containing 0.2% Tween-20. Binding of the sialic acid complex is very stable, with an off-rate of several days. Bound complex was then detected using a standard plate reader to quantify FITC fluorescence.

Recombinant human CD33 protein, sequence (P20138 18-259): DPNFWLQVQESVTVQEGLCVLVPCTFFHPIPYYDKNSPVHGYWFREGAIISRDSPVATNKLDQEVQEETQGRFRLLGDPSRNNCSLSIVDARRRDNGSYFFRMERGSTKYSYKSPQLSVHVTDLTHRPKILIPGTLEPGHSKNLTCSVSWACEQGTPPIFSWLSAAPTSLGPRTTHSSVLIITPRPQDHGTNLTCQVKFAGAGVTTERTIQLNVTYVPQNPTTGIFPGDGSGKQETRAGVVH

| Compound | EC50 |
| --- | --- |
| CC(=O)N[C@H]1[C@H]([C@H](O)[C@H](O)CNC(=O)c2cc(C)c(O)c(C)c2)O[C@@](CCN2CCOC[C@@]23CCN(C(=O)COCC(F)(F)F)C3)(C(=O)O)C[C@@H]1O [A-088] | 1950 nM |
| CC(=O)N[C@H]1[C@H]([C@H](O)[C@H](O)CNC(=O)c2cc(C)c(O)c(C)c2)O[C@@](CCN2CCOC[C@@]23CCN(C(=O)COC(C)(C)C)C3)(C(=O)O)C[C@@H]1O [A-090] | 3120 nM |
| CC(=O)N[C@H]1[C@H]([C@H](O)[C@H](O)CNC(=O)c2cc(C)c(O)c(C)c2)O[C@@](CCN2CCOC[C@@]23CCN(C(=O)C2CCOCC2)C3)(C(=O)O)C[C@@H]1O [A-091] | 452 nM |
| CC(=O)N[C@H]1[C@H]([C@H](O)[C@H](O)CNC(=O)c2cc(C)c(O)c(C)c2)O[C@@](CCN2CCOC[C@@]23CCN(C(=O)COC2CCCC2)C3)(C(=O)O)C[C@@H]1O [A-092] | 2050 nM |
| CC(=O)N[C@H]1[C@H]([C@H](O)[C@H](O)CNC(=O)c2cc(C)c(O)c(C)c2)O[C@@](CCN2CCOC[C@@]23CCN(C(=O)c2ccc4[nH]cnc4c2)C3)(C(=O)O)C[C@@H]1O [A-094] | 2330 nM |
| CC(=O)N[C@H]1[C@H]([C@H](O)[C@H](O)CNC(=O)c2cc(C)c(O)c(C)c2)O[C@@](CCN2CCN(C)C[C@@]23CCN(C(=O)NC(C)(C)C)C3)(C(=O)O)C[C@@H]1O [A-105] | 8 nM |
| CC(=O)N[C@H]1[C@H]([C@H](O)[C@H](O)CNC(=O)c2cc(C)c(O)c(C)c2)O[C@@](CCN2CCN(C)C[C@]23CCN(C(=O)NC(C)(C)C)C3)(C(=O)O)C[C@@H]1O [A-106] | 1950 nM |
| CC(=O)N[C@H]1[C@H]([C@H](O)[C@H](O)CNC(=O)c2cc(C)c(O)c(C)c2)O[C@@](CCN2CCNC[C@@]23CCN(C(=O)NC(C)(C)C)C3)(C(=O)O)C[C@@H]1O [A-108] | 26 nM |
| CC(=O)N[C@H]1[C@H]([C@H](O)[C@H](O)CNC(=O)c2cc(C)c3[nH]ncc3c2)O[C@@](CCN2CCOC[C@@]23CCN(C(=O)OC(C)(C)C)C3)(C(=O)O)C[C@@H]1O [A-130] | 9 nM |
| CC(=O)N[C@H]1[C@H]([C@H](O)[C@H](O)CNC(=O)/C=C/c2cn[nH]c2)O[C@@](CCN2CCOC[C@@]23CCN(C(=O)OC(C)(C)C)C3)(C(=O)O)C[C@@H]1O [A-176] | 650 nM |
| CC(=O)N[C@H]1[C@H]([C@H](O)[C@H](O)CNC(=O)c2cc(C)c(O)c(C)c2)O[C@@](CN2CCCC3(CCN(C(=O)OC(C)(C)C)C3)C2)(C(=O)O)C[C@@H]1O (stereo partly drawn) [A-193] | 90 nM |
| CC(=O)N[C@H]1[C@H]([C@H](O)[C@H](O)CNC(=O)c2cc(C)c(O)c(C)c2)O[C@@](C/C=C/C2(O)CCN(C(=O)OC(C)(C)C)C2)(C(=O)O)C[C@@H]1O (stereo partly drawn) [A-197] | 181 nM |
| CC(=O)N[C@H]1[C@H]([C@H](O)[C@H](O)CNC(=O)c2cc(C)c(O)c(C)c2)O[C@@](C/C=C/C2(F)CCN(C(=O)OC(C)(C)C)C2)(C(=O)O)C[C@@H]1O (stereo partly drawn) [A-198] | 148 nM |
| CC(=O)N[C@H]1[C@H]([C@H](O)[C@H](O)CNC(=O)c2cc(C)c(O)c(C)c2)O[C@@](C/C=C/C2CCN(c3cc(N(C)C)ccn3)C2)(C(=O)O)C[C@@H]1O (stereo partly drawn) [A-199] | 9860 nM |
| Cc1cc(C(=O)NC[C@@H](O)[C@@H](O)[C@@H]2O[C@@](CCN3CCOC[C@@]34CCN(C(=O)OC(C)(C)C)C4)(C(=O)O)C[C@H](O)[C@H]2N(C)C)cc(C)c1O [A-203] | > 5000 nM |
| Cc1cc(C(=O)NC[C@@H](O)C[C@H]2CCC[C@](CCN3CCOC[C@@]34CCN(C(=O)OC(C)(C)C)C4)(C(=O)O)O2)cc(C)c1O [A-208] | > 20000 nM |
| Cc1cc(C(=O)NC[C@@H](O)C[C@H]2CC[C@@H](C)[C@](CCN3CCOC[C@@]34CCN(C(=O)OC(C)(C)C)C4)(C(=O)O)O2)cc2cc[nH]c12 [A-217] | > 20000 nM |
| Cc1cc(C(=O)NC[C@H](O)C[C@H]2CC[C@@H](C)[C@](CCN3CCOC[C@@]34CCN(C(=O)OC(C)(C)C)C4)(C(=O)O)O2)cc2cc[nH]c12 [A-219] | > 20000 nM |
| CC(=O)N[C@H]1[C@H]([C@H](O)[C@H](O)CNC(=O)c2cc(C)c(O)c(C)c2)O[C@@](C[C@@H]2COC[C@@]3(CCN(C(=O)OC(C)(C)C)C3)N2)(C(=O)O)C[C@@H]1O [A-226, (2R,4S,5R,6R)-5-acetamido-2-(((5S,7R)-2-(tert-butoxycarbonyl)-9-oxa-2,6-diazaspiro[4.5]decan-7-yl)methyl)-6-((1R,2R)-1,2-dihydroxy-3-(4-hydroxy-3,5-dimethylbenzamido)propyl)-4-hydroxytetrahydro-2H-pyran-2-carboxylic acid] | 3870 nM |
| CC(=O)N[C@H]1[C@H]([C@H](O)[C@H](O)CNC(=O)c2cc(C)c(O)c(C)c2)O[C@@](CC2OC(C)(C)O[C@H]2c2ccc3c(c2)N(C(=O)OC(C)(C)C)CC3)(C(=O)O)C[C@@H]1O (stereo partly drawn) [A-308] | 2940 nM |
| Cc1cc2cc(C)c1OCCCC[C@H](NC(=O)C1CCCOC1)c1cccc(c1)/C=C/C[C@]1(C(=O)O)C[C@H](O)[C@@H](NC(=O)Cn3cc(C4CCCCC4)nn3)[C@@H](O1)[C@H](O)[C@H](O)CNC2=O (stereo partly drawn) [A-350] | 13300 nM |

Further lines, results first:

| EC50 | Compound |
| --- | --- |
| 291 nM | CC(=O)N[C@H]1[C@H]([C@H](O)[C@H](O)CNC(=O)c2cc(C)c(O)c(C)c2)O[C@@](CCN2CCOC[C@@]23CCN(C(=O)C(c2ccccc2)C2CCCCC2)C3)(C(=O)O)C[C@@H]1O (stereo partly drawn) [A-089] |
| 892 nM | CC(=O)N[C@H]1[C@H]([C@H](O)[C@H](O)CNC(=O)c2cc(C)c(O)c(C)c2)O[C@@](CCN2CCOC[C@@]23CCN(C(=O)c2ccco2)C3)(C(=O)O)C[C@@H]1O [A-093] |
| 1690 nM | CC(=O)N[C@H]1[C@H]([C@H](O)[C@H](O)CNC(=O)c2cc(C)c(O)c(C)c2)O[C@@](CCN2CCOC[C@@]23CCN(C(=O)c2ccc4[nH]c(C(C)O)nc4c2)C3)(C(=O)O)C[C@@H]1O (stereo partly drawn) [A-095] |
| > 10000 nM | CC(=O)N[C@H]1[C@H]([C@H](O)[C@H](O)CNC(=O)c2cc(C)c(O)c(C)c2)O[C@@](CCN2CCOC[C@@]23CCN(Cc2cccc(C)c2)C3)(C(=O)O)C[C@@H]1O [A-104] |
| 379 nM | CC(=O)N[C@H]1[C@H]([C@H](O)[C@H](O)CNC(=O)c2cc(C)c(O)c(C)c2)O[C@@](CCN2CCNC[C@]23CCN(C(=O)NC(C)(C)C)C3)(C(=O)O)C[C@@H]1O [A-107] |
| 24 nM | CC(=O)N[C@H]1[C@H]([C@H](O)[C@H](O)CNC(=O)c2ccc3sc(C)nc3c2)O[C@@](CCN2CCOC[C@@]23CCN(C(=O)OC(C)(C)C)C3)(C(=O)O)C[C@@H]1O [A-131] |
| 12200 nM | Cc1cc(C(=O)NC[C@@H](O)C[C@H]2CC[C@H](C)[C@](CCN3CCOC[C@@]34CCN(C(=O)OC(C)(C)C)C4)(C(=O)O)O2)cc2cc[nH]c12 [A-216] |
| > 20000 nM | Cc1cc(C(=O)NC[C@H](O)C[C@H]2CC[C@H](C)[C@](CCN3CCOC[C@@]34CCN(C(=O)OC(C)(C)C)C4)(C(=O)O)O2)cc2cc[nH]c12 [A-218] |
| 5620 nM | C#C[C@H](C)C(=O)C(=O)Nc1cccc([C@@H]2OC(C)(C)OC2C[C@]2(C(=O)O)C[C@H](O)[C@@H](NC(C)=O)[C@H]([C@H](O)[C@H](O)CNC(=O)c3cc(C)c(O)c(C)c3)O2)c1 (stereo partly drawn) [A-306] |
